Experiments:
C. xerosis [1] = experiment: Antimicrobial effect: germ count over time in 0.3% by weight aqueous solution of test substance; assay type: cell-based, Corynebacterium xerosis; settings: 0.3% by weight in water, 37° C.; for germ count CFU/ml, 0 hours: directly after addition (0 h)
Method: (§1) 20 ml of a 0.3% by weight solution of the test substance listed below in the table in water was inoculated with 200 μl of a fresh 48 hour culture of C. xerosis or S. epidermidis and incubated for three days at 37° C. Directly after the addition, as well as after 1, 3, 24 and 48 hours, samples, each of 1 ml, were taken and the germ count was determined.

S. epidermidis [2] = experiment: as above; assay type: cell-based, Staphylococcus epidermidis; settings: 0.3% by weight in water, 37° C.; for germ count CFU/ml, 0 hours: directly after addition (0 h)
Method: as §1

S. epidermidis [3] = experiment: pH dependency of the antimicrobial effect: germ count in buffered solutions; assay type: cell-based, Staphylococcus epidermidis
Method: as §1
(§2) The antimicrobial effect of octyllactamide in buffered solutions was tested correspondingly to example 8 at various pH values.

C. xerosis [4] = experiment: as above; assay type: cell-based, Corynebacterium xerosis
Method: as §1, §2

CCCCCCNC(=O)C(C)O (stereo not shown) [Hexyllactamide, N-Hexyllactamide]
germ count CFU/ml, 1 hour (C. xerosis [1]): 5.5E+5 CFU/ml
germ count CFU/ml, 3 hours (C. xerosis [1]): 2.6E+3 CFU/ml
germ count CFU/ml, 24 hours (C. xerosis [1]): <2.0E+2 CFU/ml
germ count CFU/ml, 48 hours (C. xerosis [1]): <2.0E+2 CFU/ml
germ count CFU/ml, 0 hours (C. xerosis [1]): 2.5E+6 CFU/ml
germ count CFU/ml, 1 hour (S. epidermidis [2]): 1.7E+6 CFU/ml
germ count CFU/ml, 3 hours (S. epidermidis [2]): 7.1E+5 CFU/ml
germ count CFU/ml, 24 hours (S. epidermidis [2]): <2.0E+2 CFU/ml
germ count CFU/ml, 48 hours (S. epidermidis [2]): <2.0E+2 CFU/ml
germ count CFU/ml, 0 hours (S. epidermidis [2]): 8.6E+6 CFU/ml

CCCCCCCCNC(=O)C(C)O (stereo not shown) [Octyllactamide, N-octyllactamide]
germ count CFU/ml, 0 hours (S. epidermidis [3]; buffered solution pH 4.5, 0 h): 3.7E+6 CFU/ml
germ count CFU/ml, 1 hour (S. epidermidis [3]; buffered solution pH 4.5, 1 h): 2.1E+6 CFU/ml
germ count CFU/ml, 3 hours (S. epidermidis [3]; buffered solution pH 4.5, 3 h): 7.9E+4 CFU/ml
germ count CFU/ml, 24 hours (S. epidermidis [3]; buffered solution pH 4.5, 24 h): <2.0E+2 CFU/ml
germ count CFU/ml, 48 hours (S. epidermidis [3]; buffered solution pH 4.5, 48 h): <2.0E+2 CFU/ml
germ count CFU/ml, 0 hours (S. epidermidis [3]; buffered solution pH 5.5, 0 h): 3.7E+6 CFU/ml
germ count CFU/ml, 1 hour (S. epidermidis [3]; buffered solution pH 5.5, 1 h): 1.7E+6 CFU/ml
germ count CFU/ml, 3 hours (S. epidermidis [3]; buffered solution pH 5.5, 3 h): 4.7E+3 CFU/ml
germ count CFU/ml, 24 hours (S. epidermidis [3]; buffered solution pH 5.5, 24 h): <2.0E+2 CFU/ml
germ count CFU/ml, 48 hours (S. epidermidis [3]; buffered solution pH 5.5, 48 h): <2.0E+2 CFU/ml
germ count CFU/ml, 0 hours (S. epidermidis [3]; buffered solution pH 6.9, 0 h): 3.1E+6 CFU/ml
germ count CFU/ml, 1 hour (S. epidermidis [3]; buffered solution pH 6.9, 1 h): 1.5E+6 CFU/ml
germ count CFU/ml, 3 hours (S. epidermidis [3]; buffered solution pH 6.9, 3 h): 5.7E+4 CFU/ml
germ count CFU/ml, 24 hours (S. epidermidis [3]; buffered solution pH 6.9, 24 h): <2.0E+2 CFU/ml
germ count CFU/ml, 48 hours (S. epidermidis [3]; buffered solution pH 6.9, 48 h): <2.0E+2 CFU/ml
germ count CFU/ml, 1 hour (C. xerosis [1]): 1.5E+4 CFU/ml
germ count CFU/ml, 3 hours (C. xerosis [1]): <2.0E+2 CFU/ml
germ count CFU/ml, 24 hours (C. xerosis [1]): <2.0E+2 CFU/ml
germ count CFU/ml, 48 hours (C. xerosis [1]): <2.0E+2 CFU/ml
germ count CFU/ml, 0 hours (C. xerosis [1]): 9.1E+5 CFU/ml
germ count CFU/ml, 1 hour (S. epidermidis [2]): 3.7E+6 CFU/ml
germ count CFU/ml, 3 hours (S. epidermidis [2]): 3.0E+6 CFU/ml
germ count CFU/ml, 24 hours (S. epidermidis [2]): 2.3E+6 CFU/ml
germ count CFU/ml, 48 hours (S. epidermidis [2]): 8.5E+5 CFU/ml
germ count CFU/ml, 0 hours (S. epidermidis [2]): 1.9E+7 CFU/ml
germ count CFU/ml, 0 hours (C. xerosis [4]; buffered solution pH 4.5, 0 h): 1.0E+6 CFU/ml
germ count CFU/ml, 1 hour (C. xerosis [4]; buffered solution pH 4.5, 1 h): 5.5E+4 CFU/ml
germ count CFU/ml, 3 hours (C. xerosis [4]; buffered solution pH 4.5, 3 h): <2.0E+2 CFU/ml
germ count CFU/ml, 24 hours (C. xerosis [4]; buffered solution pH 4.5, 24 h): <2.0E+2 CFU/ml
germ count CFU/ml, 48 hours (C. xerosis [4]; buffered solution pH 4.5, 48 h): <2.0E+2 CFU/ml
germ count CFU/ml, 0 hours (C. xerosis [4]; buffered solution pH 5.5, 0 h): 1.0E+6 CFU/ml
germ count CFU/ml, 1 hour (C. xerosis [4]; buffered solution pH 5.5, 1 h): 1.8E+5 CFU/ml
germ count CFU/ml, 3 hours (C. xerosis [4]; buffered solution pH 5.5, 3 h): 3.5E+4 CFU/ml
germ count CFU/ml, 24 hours (C. xerosis [4]; buffered solution pH 5.5, 24 h): <2.0E+2 CFU/ml
germ count CFU/ml, 48 hours (C. xerosis [4]; buffered solution pH 5.5, 48 h): <2.0E+2 CFU/ml
germ count CFU/ml, 0 hours (C. xerosis [4]; buffered solution pH 6.9, 0 h): 7.3E+5 CFU/ml
germ count CFU/ml, 1 hour (C. xerosis [4]; buffered solution pH 6.9, 1 h): 3.3E+3 CFU/ml
germ count CFU/ml, 3 hours (C. xerosis [4]; buffered solution pH 6.9, 3 h): <2.0E+2 CFU/ml
germ count CFU/ml, 24 hours (C. xerosis [4]; buffered solution pH 6.9, 24 h): <2.0E+2 CFU/ml
germ count CFU/ml, 48 hours (C. xerosis [4]; buffered solution pH 6.9, 48 h): <2.0E+2 CFU/ml

PEG-3-octyllactamide [Octyl-PEG-3-lactamide]
germ count CFU/ml, 1 hour (C. xerosis [1]): 6.3E+4 CFU/ml
germ count CFU/ml, 3 hours (C. xerosis [1]): 3.7E+3 CFU/ml
germ count CFU/ml, 24 hours (C. xerosis [1]): <2.0E+2 CFU/ml
germ count CFU/ml, 48 hours (C. xerosis [1]): <2.0E+2 CFU/ml
germ count CFU/ml, 0 hours (C. xerosis [1]): 9.1E+5 CFU/ml
germ count CFU/ml, 1 hour (S. epidermidis [2]): 4.1E+6 CFU/ml
germ count CFU/ml, 3 hours (S. epidermidis [2]): 3.1E+6 CFU/ml
germ count CFU/ml, 24 hours (S. epidermidis [2]): <2.0E+2 CFU/ml
germ count CFU/ml, 48 hours (S. epidermidis [2]): <2.0E+2 CFU/ml
germ count CFU/ml, 0 hours (S. epidermidis [2]): 1.9E+7 CFU/ml

PEG-10-octyllactamide [Octyl-PEG-10-lactamide]
germ count CFU/ml, 1 hour (C. xerosis [1]): 4.5E+5 CFU/ml
germ count CFU/ml, 3 hours (C. xerosis [1]): 1.8E+5 CFU/ml
germ count CFU/ml, 24 hours (C. xerosis [1]): 1.6E+3 CFU/ml
germ count CFU/ml, 48 hours (C. xerosis [1]): <2.0E+2 CFU/ml
germ count CFU/ml, 0 hours (C. xerosis [1]): 9.1E+5 CFU/ml
germ count CFU/ml, 1 hour (S. epidermidis [2]): 2.3E+6 CFU/ml
germ count CFU/ml, 3 hours (S. epidermidis [2]): 9.3E+6 CFU/ml
germ count CFU/ml, 24 hours (S. epidermidis [2]): 8.1E+4 CFU/ml
germ count CFU/ml, 48 hours (S. epidermidis [2]): <2.0E+2 CFU/ml
germ count CFU/ml, 0 hours (S. epidermidis [2]): 1.9E+7 CFU/ml
